“And” between values parts separate entries of the source, which are not always exact repeats. Identical values can stand only once.

These results are taken from ChEMBL document CHEMBL5441456, “ASAP - SARS-CoV-2 nsp3 macrodomain dose response” (2024).

The target in this test is Replicase polyprotein 1ab (Severe acute respiratory syndrome coronavirus 2, UniProt P0DTD1). In words: Functional biochemical assay to identify treatments for viral infectious disease that targets SARS-COV-2 nsp3 macrodomain, whereby the mechanism of action displaces an ADP-Ribose modified peptide from the binding site. Utilizing a time-resolved fluorescence method to measure binding by reading the emitted fluorescence intensity in two wavelengths.
In general, IC50 refers to the concentration needed to halve the response being measured. A high value points to lower potency. Turning to `CC(C)[C@H](Nc1ncnc2[nH]ccc12)C(=O)O`, the IC50 was 34.1 µM and 33.8 µM.

As for `CNC(=O)c1cc2c(N[C@@H](c3ccc4c(c3)OCCO4)C(C)C)ncnc2[nH]1`, the IC50 was 0.45 µM and 0.366 µM.

Regarding `CCNC(=O)c1cc2c(N[C@@H](c3ccc4c(c3)OCCO4)C(C)C)ncnc2[nH]1`, the IC50 was 0.28 µM and 0.305 µM and 0.287 µM and 0.614 µM.

`CC(C)[C@@H](Nc1ncnc2[nH]c(C(N)=O)cc12)c1ccc2c(c1)OCCO2`: the IC50 is 0.453 µM and 0.466 µM.

`CC(C)[C@@H](Nc1ncnc2[nH]c(-c3cnn(C)n3)cc12)c1ccc2c(c1)OCCO2`: the IC50 is 0.485 µM and 0.517 µM.

Regarding `COC(=O)c1c[nH]c(-c2cc(N[C@@H](c3ccc4c(c3)OCCO4)C(C)C)ncn2)c1`, the IC50 was over 99.5 µM.

The molecule `CC(C)C[C@@H](Nc1ncnc2[nH]ccc12)C(=O)O` displayed an IC50 of over 99.5 µM.

For the molecule `CC(C)[C@@H](Nc1ncnc2[nH]ccc12)c1ccc2c(c1)OCC(=O)N2`, the IC50 was 27.2 µM and 24.2 µM.

`O=C(O)[C@@H](CC1CCCCC1)Nc1ncnc2[nH]ccc12`: the IC50 was 74.6 µM and 71.4 µM.

On to `COc1cnn(C)c1-c1cc2c(N[C@@H](c3ccc4c(c3)OCCO4)C(C)C)ncnc2[nH]1`, for which the IC50 was 50.9 µM and 55.9 µM.

For `C[C@@H](C(=O)O)[C@@H](NC(=O)c1ncnc2[nH]ccc12)c1ccc(Br)cc1`, the IC50 was 0.808 µM and 0.532 µM.

For `CC(C)[C@@H](Nc1cc(-c2c[nH]cn2)ncn1)c1ccc2c(c1)OCCO2`, the IC50 was over 99.5 µM.

In turn, `O=C(O)[C@@H]1C[C@H](F)CN1c1ncnc2[nH]ccc12` came in with an IC50 of over 99.5 µM.

Turning to `O=C(O)[C@@H](CC1CC1)Nc1ncnc2[nH]ccc12`, the IC50 was over 99.5 µM.

On to `CCC[C@@H](Nc1ncnc2[nH]ccc12)C(=O)O`, for which the IC50 was over 99.5 µM.

With `CNC(=O)c1c[nH]c2ncnc(N[C@@H](c3ccc4c(c3)OCCO4)C(C)C)c12`, the IC50 is 0.728 µM and 0.692 µM.

In the case of `CC(C)[C@@H](Nc1ncnc2[nH]c(-c3cnoc3)cc12)c1ccc2c(c1)OCCO2`, the IC50 was 29.9 µM and > 99.5 µM.

`O=C(O)[C@@H]1C[C@@H]2OCC[C@@H]2N1c1ncnc2[nH]ccc12`: the IC50 was over 99.5 µM.

For `O=C(O)[C@@H]1CC2(CCCCC2)CN1c1ncnc2[nH]ccc12`, the IC50 was over 99.5 µM.

In the case of `CC(C)[C@@H](Nc1ncnc2[nH]ccc12)c1ccc2c(c1)CCCS2(=O)=O`, the 50% inhibitory concentration (IC50) is 3.01 µM and 2.64 µM.

`CC(C)[C@@H](Nc1ccc(NC(=O)NC2CC2)cc1)c1ccc2c(c1)OCCO2`: the IC50 was over 99.5 µM.

On to `CC(C)[C@H](Nc1ncnc2[nH]c(-c3cnn(CC(N)=O)c3)cc12)c1ccc2c(c1)OCCO2`, for which the IC50 is 90 µM and 93.5 µM.

As for `CC(C)[C@@H](Nc1ncnc2[nH]cc(C(N)=O)c12)c1ccc2c(c1)OCCO2`, the IC50 is 0.786 µM and 0.865 µM.

Regarding `CN1CC[C@@H]1[C@@H](Nc1ncnc2[nH]ccc12)c1ccc2c(c1)OCCO2`, the IC50 was > 99.5 µM and 66 µM.

As for `COC(=O)c1c[nH]c2ncnc(N[C@@H](c3ccc4c(c3)OCCO4)C(C)C)c12`, the IC50 is 3.11 µM and 3.49 µM.

For `CC(C)[C@@H](Nc1ncnc2[nH]c(-c3cnn(C(C)C)c3C#N)cc12)c1ccc2c(c1)OCCO2`, the IC50 was 1.84 µM and 2.02 µM.

Consider `CO[C@H]1C[C@@H](C(=O)O)N(c2ncnc3[nH]ccc23)C1`, for which the IC50 was 79.4 µM and 83.6 µM.

As to `Cc1nnc(Nc2ccc(C(=O)N[C@@H]3c4cccc(O)c4C[C@H]3C(=O)O)cc2)o1`, the IC50 was 25.3 µM and 26 µM.

Molecule `COc1nc(N[C@@H](c2ccc3c(c2)OCCO3)C(C)C)c2cc[nH]c2n1` yielded an IC50 of over 99.5 µM.

`O=C(O)[C@@H](CC(F)F)Nc1ncnc2[nH]ccc12`: the half-maximal inhibitory concentration (IC50) was 80.7 µM and 94.4 µM.

As for `O=C(O)[C@@H](Nc1ncnc2[nH]ccc12)C1CC1`, the IC50 was 72.2 µM and 72 µM.

As to `O=C(O)[C@H]1C[C@H](O)CN1c1ncnc2[nH]ccc12`, the IC50 is over 99.5 µM.

Take `O=C(Nc1cccc2c(C(=O)N[C@H]3c4ccccc4C[C@H]3C(=O)O)c[nH]c12)NC1CC1`: the IC50 was 7.83 µM and 6.58 µM.

As for `CC(C)[C@@H](Nc1ncnc2[nH]ccc12)c1cccc(C(F)(F)F)c1`, the IC50 was 83.2 µM and 77.6 µM.

In turn, `COc1ccc([C@@H]2CN(C(=O)c3ncnc4[nH]ccc34)C[C@H]2C(=O)O)cc1` registered an IC50 of over 99.5 µM.

On to `O=C(O)[C@@H]1[C@@H](c2ccccc2)CCN1c1ncnc2[nH]ccc12`, for which the IC50 was over 99.5 µM.

In the case of `CC(C)[C@@H](Nc1ncnc2[nH]cc(C(=O)N(C)C)c12)c1ccc2c(c1)OCCO2`, the IC50 was 1.95 µM and 1.97 µM.

Consider `CNc1nc(N[C@@H](c2ccc3c(c2)OCCO3)C(C)C)c2cc[nH]c2n1`, for which the IC50 is over 99.5 µM.

The molecule `Cc1nn(CC(C)C)c(Cl)c1[C@@H]1CCCN1c1ncnc2[nH]ccc12` had an IC50 of over 99.5 µM.

In turn, `CC(C)[C@@H](Nc1nc(N(C)C)nc2[nH]ccc12)c1ccc2c(c1)OCCO2` displayed an IC50 of over 99.5 µM.

For the molecule `O=C(Nc1ccc(C(=O)N[C@@H]2c3ccccc3C[C@@H]2C(=O)O)cc1)c1ccc2c(c1)OCCO2`, the IC50 is over 99.5 µM.

Consider `CC(C)[C@@H](Nc1ncnc2[nH]cc(C#N)c12)c1ccc2c(c1)OCCO2`, for which the IC50 was 4.36 µM and 3.82 µM.

Regarding `COC(=O)c1cc2c(N[C@@H](c3ccc4c(c3)OCCO4)C(C)C)ncnc2[nH]1`, the IC50 was 5.31 µM and 6.5 µM.

For `COc1ccc([C@@H](Cc2nn[nH]n2)NC(=O)c2nc(C)nc3[nH]ccc23)cc1`, the IC50 was 1.84 µM and 1.65 µM.

With `CNC(=O)c1cccc([C@@H](CC(=O)O)NC(=O)c2ncnc3[nH]ccc23)c1`, the IC50 is 18.7 µM and 17.4 µM.

In the case of `CC(C)[C@@H](Nc1ncnc2[nH]ccc12)c1ccc2c(c1)C(=O)NCC2`, the IC50 was 2.25 µM and 2.44 µM.

Consider `CC(C)[C@@H](Nc1ncnc2[nH]cc(S(=O)(=O)N(C)C)c12)c1ccc2c(c1)OCCO2`, for which the IC50 was 3.45 µM and 3.98 µM.

In the case of `O=C(O)[C@H](CC1CCCCC1)Nc1ncnc2[nH]ccc12`, the IC50 is 92.3 µM and 91.8 µM.

For `CNS(=O)(=O)c1c[nH]c2ncnc(N[C@@H](c3ccc4c(c3)OCCO4)C(C)C)c12`, the IC50 is 2.57 µM and 2.6 µM.

In the case of `COc1ccc([C@@H](Cc2nn[nH]n2)NC(=O)c2nc(OC)nc3[nH]ccc23)cc1`, the IC50 is 4.55 µM and 4.97 µM.

On to `O=C(O)C[C@@H](NC(=O)c1ncnc2[nH]c3cc(F)ccc3c12)c1ccc(Br)cc1`, for which the IC50 is 0.992 µM and 1.01 µM.

`CC(C)[C@@H](Nc1ncnc2[nH]c(-c3ccc(C4(C#N)CC4)cc3)cc12)c1ccc2c(c1)OCCO2` displayed an IC50 of over 99.5 µM.

In turn, `CC(C)[C@@H](Nc1cc(-c2cc[nH]n2)ncn1)c1ccc2c(c1)OCCO2` displayed an IC50 of over 99.5 µM.

`CC(C)[C@@H](Nc1cnc(C(=O)O)cn1)c1ccc2c(c1)OCCO2` returned an IC50 of over 99.5 µM.

Turning to `Cc1nnc(Nc2ccc(C(=O)N[C@@H]3c4cccc(O)c4C[C@@H]3C(=O)O)cc2)o1`, the IC50 is 7.16 µM and 7.38 µM.

As for `COc1ccc(C(=O)Nc2ccc(C(=O)N[C@@H]3c4ccccc4C[C@@H]3C(=O)O)cc2)cc1S(=O)(=O)NCCN1CCCC1`, the IC50 is over 99.5 µM.

On to `CC(C)[C@@H](Nc1ncnc2[nH]ccc12)c1ccc2c(c1)CCNC2=O`, for which the 50% inhibitory concentration (IC50) was 15.3 µM and 15 µM.

Take `O=C(O)C[C@@H](NC(=O)c1ccc(NC(=O)NC2CC2)cc1)c1cccc(C(F)F)c1`: the IC50 was 76.4 µM and 72.3 µM.

Molecule `O=C(Nc1ccc(C(=O)N[C@@H]2c3ccccc3C[C@@H]2C(=O)O)cc1)c1ccc(C(=O)NC2CC2)cc1` returned a 50% inhibitory concentration (IC50) of over 99.5 µM.

`CC(C)[C@H](Nc1ncnc2[nH]ccc12)c1ccc2c(c1)NC(=O)CO2` displayed an IC50 of over 99.5 µM.

Consider `Cc1nnc(Nc2ccc(C(=O)N[C@H]3c4cccc(O)c4C[C@H]3C(=O)O)cc2)o1`, for which the IC50 was over 99.5 µM.

In turn, `COc1ccc([C@@H](CC(=O)O)NC(=O)c2cc3cccc(NC(=O)NC4CC4)c3[nH]2)cc1` displayed an IC50 of over 99.5 µM.

In turn, `O=C(O)[C@H]1C[C@@H](F)CN1c1ncnc2[nH]ccc12` came in with an IC50 of over 99.5 µM.

Regarding `Cc1nnc(Nc2ccc(C(=O)N[C@H]3c4cccc(O)c4C[C@@H]3C(=O)O)cc2)o1`, the IC50 was over 99.5 µM.

`COc1ccc([C@@](C)(CC(=O)O)NC(=O)c2ncnc3[nH]ccc23)cc1`: the IC50 was 19.3 µM and 18.2 µM.

Molecule `CC(C)c1nc(N[C@@H](c2ccc3c(c2)OCCO3)C(C)C)c2cc[nH]c2n1` returned an IC50 of over 99.5 µM.

For the molecule `CC(C)[C@@H](Nc1ncnc2[nH]c(-c3cnc(C#N)nc3)cc12)c1ccc2c(c1)OCCO2`, the 50% inhibitory concentration (IC50) is 2.52 µM and 2.51 µM.

`CO[C@@H]1C[C@@H](C(=O)O)N(c2ncnc3[nH]ccc23)C1` displayed an IC50 of over 99.5 µM.

On to `CC(C)[C@@H](Nc1ncnc2[nH]ccc12)c1ccncc1`, for which the half-inhibitory concentration (IC50) is > 12.4 µM and 34 µM.

As for `N#Cc1ccc(C(=O)Nc2ccc(C(=O)N[C@@H]3c4ccccc4C[C@@H]3C(=O)O)cc2)cc1`, the IC50 is over 99.5 µM.

`O=C(Nc1ccc(C(=O)N[C@@H]2c3ccccc3C[C@@H]2C(=O)O)cc1)c1ccc(N2CCC(O)CC2)cc1`: the IC50 was over 99.5 µM.

Consider `CC(C)[C@@H](Nc1ncnc2[nH]ccc12)c1ccc2c(c1)N(C)CCO2`, for which the IC50 was 27.8 µM and 31.7 µM.

`O=C(O)[C@H](CC1CC1)Nc1ncnc2[nH]ccc12`: the IC50 was over 99.5 µM.

`CC(C)[C@@H](Nc1ncnc2[nH]cc(S(N)(=O)=O)c12)c1ccc2c(c1)OCCO2`: the IC50 is 3.43 µM and 3.07 µM.

`CC(C)[C@@H](Nc1ncnc2[nH]c(-c3cccc(C#N)c3)cc12)c1ccc2c(c1)OCCO2`: the IC50 was 17.8 µM and 22.1 µM.

Molecule `c1nc(N[C@@H](c2ccc3c(c2)OCCO3)C2CNC2)c2cc[nH]c2n1` came in with an IC50 of over 99.5 µM.

For the molecule `CC(C)[C@@H](Nc1ncnc2[nH]ccc12)C(=O)O`, the IC50 is 15.4 µM and 16.8 µM and 20.9 µM and 20.6 µM.

As to `CNc1nc(C(=O)N[C@@H](Cc2nn[nH]n2)c2ccc(OC)cc2)c2ccnc-2[nH]1`, the IC50 was 45.7 µM and 44.7 µM.

On to `CC(C)[C@@H](Nc1ncnc2[nH]c(-c3ccoc3)cc12)c1ccc2c(c1)OCCO2`, for which the IC50 is 1.52 µM and 1.64 µM.

`COc1ccc([C@@H](CC(=O)O)NC(=O)c2c[nH]c3c(NC(=O)NC4CC4)cccc23)cc1` returned an IC50 of over 99.5 µM.

As to `CC(C)[C@@H](Nc1ncnc2[nH]cc(Br)c12)c1ccc2c(c1)OCCO2`, the IC50 is 10.1 µM and 11.8 µM.

`CC(C)[C@@H](Nc1nc(C2CC2)nc2[nH]ccc12)c1ccc2c(c1)OCCO2` returned an IC50 of over 99.5 µM.

The molecule `CCC[C@H](Nc1ncnc2[nH]ccc12)C(=O)O` registered an IC50 of over 99.5 µM.

In turn, `c1nc(N[C@@H](c2ccc3c(c2)OCCO3)[C@@H]2CCN2)c2cc[nH]c2n1` had an IC50 of over 99.5 µM.

`O=C(O)[C@@H]1C[C@@H](O)CN1c1ncnc2[nH]ccc12`: the IC50 was over 99.5 µM.

For `CC(C)[C@@H](Nc1ncnc2[nH]ccc12)c1ccc(C(F)(F)F)cc1`, the IC50 is 46.2 µM and 37.2 µM.

In turn, `O=C(O)[C@@H](Nc1ncnc2[nH]ccc12)C1CC(F)(F)C1` gave an IC50 of over 99.5 µM.
